Drawing on US10208034B2, “Quinoline derivative” (ONO PHARMACEUTICAL CO., LTD., priority 2014, dated 2019), this text covers IC50 for 2 compounds.

The target in this assay is T1, Human CYP2C8 (Homo sapiens, UniProt P10632).
T1 construct: purchased Cypex; host or cells: E. coli
T1 sequence (P10632 1-490): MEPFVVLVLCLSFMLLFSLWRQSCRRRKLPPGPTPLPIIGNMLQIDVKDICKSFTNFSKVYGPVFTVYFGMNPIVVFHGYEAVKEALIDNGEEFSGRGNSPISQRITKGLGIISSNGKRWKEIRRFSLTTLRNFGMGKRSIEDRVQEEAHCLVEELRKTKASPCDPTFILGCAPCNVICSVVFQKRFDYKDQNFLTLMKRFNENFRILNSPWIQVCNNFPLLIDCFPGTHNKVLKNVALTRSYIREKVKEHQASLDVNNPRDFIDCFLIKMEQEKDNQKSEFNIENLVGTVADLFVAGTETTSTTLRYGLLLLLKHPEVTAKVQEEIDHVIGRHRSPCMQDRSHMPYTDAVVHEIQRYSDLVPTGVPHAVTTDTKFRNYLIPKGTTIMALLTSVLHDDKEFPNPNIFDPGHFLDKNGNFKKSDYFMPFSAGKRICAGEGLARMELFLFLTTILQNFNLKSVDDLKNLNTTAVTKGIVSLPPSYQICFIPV
Put plainly: Inhibitory activity of drug-metabolizing enzyme (human CYP2C8 inhibition effect). To be noted: E. coli-expressed CYP2C8, Luciferin-ME substrate, 37° C. 30 min, from inhibition at 1 and 10 μmol/L. The assay is classed as in vitro ADME. As to the method: The reaction was carried out in a 384-well plate. As the positive control substance (CYP2C8: quercetin), a solution, which had been adjusted with DMSO to have 300 times higher concentration than the final concentration (CYP2C8: 22.5 and 225 μmol/L) and been 75-fold diluted with purified water containing 2.7% acetonitrile, was prepared (CYP2C8: 0.3 and 3 μmol/L). […] Thereafter, 16 μL of luciferase solution was added to stop the reaction and to allow luciferin to emit light, and the luminescence intensity of the reaction solution was measured. The inhibition rate is a reduction rate (inhibition rate) of the luminescence intensity when compared with the control in which the reaction was carried out by the addition of DMSO in place of the test compound solution. The inhibition rate was calculated from the following mathematical formula. Inhibition rate (%)=100−{(luminescence intensity of test compound−background luminescence intensity)/(luminescence intensity of control−background luminescence intensity)×100} [Math. […]
The IC50 value of the compound of the present invention was measured using the measurement method described above.

A value given as a limit tells only on which side of the number the result lay.

Broadly, the IC50 is the concentration that inhibits the measured activity by half. For the compound `COc1cc2nccc(Oc3ccc(NC(=O)c4c5c(cn(-c6ccccc6)c4=O)C(=O)CCC5)nc3)c2cc1OC` [Example 42, N-{5-[(6,7-dimethoxy-4-quinolinyl)oxy]-2-pyridinyl}-3,8-dioxo-2-phenyl-2,3,5,6,7,8-hexahydro-4-isoquinolinecarboxamide], the IC50 is above 10 µM.
To `COc1cc2nccc(Oc3ccc(NC(=O)c4cc(C(C)=O)cn(-c5ccccc5)c4=O)nc3)c2cc1OC` [Example 21, 5-acetyl-N-{5-[(6,7-dimethoxy-4-quinolinyl)oxy]-2-pyridinyl}-2-oxo-1-phenyl-1,2-dihydro-3-pyridinecarboxamide] belongs above 10 µM.
